Results as given in patent publication US7625887B2, “Receptor agonists” (Takeda Pharmaceutical Company Limited, priority 2003, dated 2009).
pEC50: −log10 of the molar value. Structures can show the parent of a compound that is named as a salt.

Target: T1, human TGR5 (Homo sapiens, UniProt Q8TDU6)
T1 construct: expressed in transfected cells; host or cells: CHO cells
T1 sequence (Q8TDU6 1-330): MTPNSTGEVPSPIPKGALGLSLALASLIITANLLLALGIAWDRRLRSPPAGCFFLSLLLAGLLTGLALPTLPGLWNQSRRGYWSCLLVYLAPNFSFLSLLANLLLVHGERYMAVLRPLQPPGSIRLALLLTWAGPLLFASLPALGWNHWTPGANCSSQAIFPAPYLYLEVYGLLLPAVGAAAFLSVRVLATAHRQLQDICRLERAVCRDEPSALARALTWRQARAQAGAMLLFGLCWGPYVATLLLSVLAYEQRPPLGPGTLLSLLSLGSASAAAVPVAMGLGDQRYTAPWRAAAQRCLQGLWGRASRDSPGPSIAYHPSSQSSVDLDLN
Test: cAMP production increasing activity in human TGR5 expressing CHO cells
Type: cell-based
Details: test compound 1 μM, 30 min; 1 μM lithocholic acid = 100%, no addition = 0%; average of 3 groups
Procedure: As the assay buffer, Hank's balanced salt solution (HBSS, Invitrogen) supplemented with 0.1% bovine serum albumin (BSA, Sigma) and 0.5 mM 3-isobutyl-1-methylxanthine (IBMX, Sigma) was used. A test compound sample (1 μM) diluted with the assay buffer was added to the cells. The cells were incubated at 37° C. for 30 min. and the supernatant was suctioned. The intracellular cAMP amount increased by the stimulation of the test compound was quantitatively determined using a HitHunter™ EFC Cyclic AMP Chemiluminescence Assay Kit (ABI) kit.

Row | cAMP production increasing activity (control %) | Compound
1 | 128 control % | CC(C)(C)CN1C(=O)[C@@H](CC(=O)NCc2ccccc2F)O[C@@H](c2cccc(CO)c2)c2cc(Cl)ccc21 (relative stereo) [Reference Example 9, 2-[3,5-trans-7-chloro-5-[3-(hydroxymethyl)phenyl]-1-neopentyl-2-oxo-1,2,3,5-tetrahydro-4,1-benzoxazepin-3-yl]-N-(2-fluorobenzyl)acetamide]
2 | 108 control % | CC(C)(C)CN1C(=O)[C@@H](CC(=O)NCc2ccccc2F)O[C@@H](c2cccc(C3OCCO3)c2)c2cc(Cl)ccc21 (relative stereo) [Reference Example 2, 2-[3,5-trans-7-chloro-5-[3-([1,3]dioxolan-2-yl)phenyl]-1-neopentyl-2-oxo-1,2,3,5-tetrahydro-4,1-benzoxazepin-3-yl]-N-(2-fluorobenzyl)acetamide]
3 | 80 control % | CC(C)(C)CN1C(=O)[C@@H](CC(=O)NCc2ccccc2F)O[C@@H](c2cccc(CNS(C)(=O)=O)c2)c2cc(Cl)ccc21 (relative stereo) [Reference Example 4, 2-[3,5-trans-7-chloro-5-[3-(methanesulfonylaminomethyl)phenyl]-1-neopentyl-2-oxo-1,2,3,5-tetrahydro-4,1-benzoxazepin-3-yl]-N-(2-fluorobenzyl)acetamide]
4 | 116 control % | CC(C)(C)CN1C(=O)[C@@H](CC(=O)NCc2ccccc2F)O[C@@H](c2cccc(CNC(=O)C(F)(F)F)c2)c2cc(Cl)ccc21 (relative stereo) [Reference Example 5, N-[3-[3,5-trans-7-chloro-3-[2-[(2-fluorobenzyl)amino]-2-oxoethyl]-1-neopentyl-2-oxo-1,2,3,5-tetrahydro-4,1-benzoxazepin-5-yl]benzyl]-2,2,2-trifluoroacetamide]
5 | 97 control % | CC(C)(C)CN1C(=O)[C@@H](CC(=O)NCc2ccccc2F)O[C@@H](c2cccc(N)c2)c2cc(Cl)ccc21 (relative stereo) [Reference Example 1, 2-[3,5-trans-5-(3-aminophenyl)-7-chloro-1-neopentyl-2-oxo-1,2,3,5-tetrahydro-4,1-benzoxazepin-3-yl]-N-(2-fluorobenzyl)acetamide]

Target: T1, human TGR5
Test: as above
Type: cell-based
Details: read-out: EC50 value (concentration necessary to make the cAMP production amount 50%)

Row | pEC50 | Compound
6 | > 7.00 | CC(C)(C)CN1C(=O)C(CC(=O)NCc2ccccc2F)OC(c2cccc(Cn3ccnc3)c2)c2cc(Cl)ccc21 (stereo not drawn) [Example 60, 2-[3,5-trans-7-chloro-5-[3-(1H-imidazol-1-ylmethyl)phenyl]-1-neopentyl-2-oxo-1,2,3,5-tetrahydro-4,1-benzoxazepin-3-yl]-N-(2-fluorobenzyl)acetamide]
7 | > 7.00 | Cc1cc(C(=O)N2Cc3ccccc3N(CC(C)C)C(=O)C2CC(=O)NCc2ccccc2F)ccn1 (stereo not drawn) [Example 23B, N-(2-fluorobenzyl)-2-[1-isobutyl-4-(2-methylisonicotinoyl)-2-oxo-2,3,4,5-tetrahydro-1H-1,4-benzodiazepin-3-yl]acetamide]
8 | > 7.00 | FC(F)(F)c1cc(CCN2CCOc3nccc(-c4ccccc4)c3C2)cc(C(F)(F)F)c1 [Example 45C, 4-{2-[3,5-bis(trifluoromethyl)phenyl]ethyl}-6-phenyl-2,3,4,5-tetrahydropyrido[3,2-f][1,4]oxazepine hydrochloride]
9 | > 7.00 | O=S(=O)(c1cc(C(F)(F)F)cc(C(F)(F)F)c1)N1CCCOc2nccc(-c3ccc(F)cc3)c2C1 [Example 60C, 5-{[3,5-bis(trifluoromethyl)phenyl]sulfonyl}-7-(4-fluorophenyl)-3,4,5,6-tetrahydro-2H-pyrido[2,3-b][1,5]oxazocine]
